US20020137929A1, “1 - (3-heterocyclylphenyl) isothiourea, -isourea, -guanidine and -amidine herbicidal agents” (Intellectual Property Department, BASF Aktiengesellschaft, priority 1998, published 2002)

Experiments:
ABUTH (Velvetleaf) [1] = assay: Postemergence herbicidal evaluation; format: in vivo, Abutilon theophrasti; conditions: postemergence
Summary of the method: (§1)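 First, seedlings were raised for around two weeks. Next, test material in 50/50 acetone/water containing 0.5% TWEEN 20 was sprayed through a nozzle at 40 psi, equivalent to about 0.0156–0.500 kg/ha. Finally, after 4–5 weeks in the greenhouse, plants were rated 0–9.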

[2] = tested on: IPOHE (Morningglory, Ivyleaf); assay: Postemergence herbicidal evaluation; format: in vivo, Ipomoea hederacea; conditions: postemergence
Summary of the method: as §1

SETVI (Foxtail, Green) = assay: Postemergence herbicidal evaluation; format: in vivo, Setaria viridis; conditions: postemergence
Summary of the method: as §1

[3] = tested on: GLXMAW (Soybean, Williams); assay: Postemergence herbicidal evaluation; format: in vivo, Glycine max, (L.) Merr. cv Williams; conditions: postemergence
Summary of the method: as §1

ZEAMX (Corn, Field) = assay: Postemergence herbicidal evaluation; format: in vivo, Zea mays; conditions: postemergence
Summary of the method: as §1

ABUTH (Velvetleaf) [4] = assay: Preemergence herbicidal evaluation; format: in vivo, Abutilon theophrasti; conditions: rated 4-5 weeks after treatment
Summary of the method: (§2)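 Sown cups got a single aqueous acetone spray of test compound (roughly 0.0156–0.500 kg/ha) before seedlings emerged. Evaluation, 4–5 weeks on, used a 0–9 visual scale covering plant stand, vigor, size, malformation, chlorosis and general appearance compared with controls.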

AMBEL (Ragweed, Common) = assay: Preemergence herbicidal evaluation; format: in vivo, Ambrosia artemisifolia; conditions: rated 4-5 weeks after treatment
Summary of the method: as §2

CASOB (Sicklepod) = assay: Preemergence herbicidal evaluation; format: in vivo, Cassia obtusifolia; conditions: rated 4-5 weeks after treatment
Summary of the method: as §2

[5] = tested on: IPOHE (Morningglory, Ivyleaf); assay: Preemergence herbicidal evaluation; format: in vivo, Ipomoea hederacea; conditions: rated 4-5 weeks after treatment
Summary of the method: as §2

ECHCG (Barnyardgrass) = assay: Preemergence herbicidal evaluation; format: in vivo, Echinochloa crus-galli; conditions: rated 4-5 weeks after treatment
Summary of the method: as §2

[6] = tested on: ECHORC (Watergrass (Calif.)); assay: Preemergence weed control under flooded paddy conditions; format: in vivo, Echinochloa oryzoides; conditions: rated 3-4 weeks after treatment
Summary of the method: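 First, seeds or propagules go into the top 0.5 cm of silt loam; next, water is held 1.5 to 3 cm over the soil; then compound (50/50 acetone/water) is pipetted into it at about 0.0313 to 0.500 kg/ha; finally plants are rated visually 0-9 after three to four weeks.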

CYPSE (Flatsedge) = assay: as above; format: in vivo, Cyperus serotinus; conditions: rated 3-4 weeks after treatment
Summary of the method: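 Seeds or propagules sown in silt loam kept flooded 1.5-3 cm; compounds in 50/50 acetone/water pipetted into flood water at about 0.0313 to 0.500 kg/ha. Greenhouse; visual 0-9 rating versus untreated control 3-4 weeks after treatment.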

[7] = tested on: ECHORC (Watergrass (Calif.)); assay: Postemergence weed control under flooded paddy conditions; format: in vivo, Echinochloa oryzoides; conditions: postemergence weeds, 3-4 weeks after treatment
Summary of the method: (§3)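 Injury ratings (0–9 scale covering stand, vigor, malformation, size, chlorosis and overall appearance versus control) were made three to four weeks after treatment. Test material, about 0.0313 to 0.500 kg/ha a.i. in 50/50 v/v aqueous/acetone, was added to flood water 1.5 to 3 cm deep over 3 to 5 cm weeds and 1.5 to 2.5 leaf rice.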

CYPIR (Rice Flatsedge) = assay: as above; format: in vivo, Cyperus iria; conditions: postemergence weeds, 3-4 weeks after treatment
Summary of the method: as §3

Compound: CCOC(=O)CN1C(=O)CSC1=Nc1cc(-n2c(=O)cc(C(F)(F)F)n(C)c2=O)c(F)cc1Cl [Compound 8, Ethyl 2-{{2-chloro-5-[3,6-dihydro-3-methyl-2,6-dioxo-4-(trifluoromethyl)-1(2H)pyrimidinyl]-4-fluorophenyl}imino}-4-oxo-3-thiazolidineacetate]
- ABUTH herbicidal rating (ABUTH (Velvetleaf) [1]; rate 0.0157 kg/ha): 9.0
- ABUTH herbicidal rating (ABUTH (Velvetleaf) [1]; rate 0.0313 kg/ha): 9.0
- ABUTH herbicidal rating (ABUTH (Velvetleaf) [1]; rate 0.0625 kg/ha): 9.0
- ABUTH herbicidal rating (ABUTH (Velvetleaf) [1]; rate 0.1250 kg/ha): 9.0
- IPOHE herbicidal rating ([2]; rate 0.0157 kg/ha): 9.0
- IPOHE herbicidal rating ([2]; rate 0.0313 kg/ha): 9.0
- IPOHE herbicidal rating ([2]; rate 0.0625 kg/ha): 9.0
- IPOHE herbicidal rating ([2]; rate 0.1250 kg/ha): 9.0
- SETVI herbicidal rating (SETVI (Foxtail, Green); rate 0.0313 kg/ha): 5.3
- SETVI herbicidal rating (SETVI (Foxtail, Green); rate 0.0625 kg/ha): 7.6
- SETVI herbicidal rating (SETVI (Foxtail, Green); rate 0.1250 kg/ha): 9.0
- GLXMAW herbicidal rating ([3]; rate 0.0157 kg/ha): 7.5
- GLXMAW herbicidal rating ([3]; rate 0.0313 kg/ha): 7.6
- GLXMAW herbicidal rating ([3]; rate 0.0625 kg/ha): 7.9
- GLXMAW herbicidal rating ([3]; rate 0.1250 kg/ha): 8.4
- ZEAMX herbicidal rating (ZEAMX (Corn, Field); rate 0.0157 kg/ha): 7.5
- ZEAMX herbicidal rating (ZEAMX (Corn, Field); rate 0.0313 kg/ha): 7.3
- ZEAMX herbicidal rating (ZEAMX (Corn, Field); rate 0.0625 kg/ha): 7.4
- ZEAMX herbicidal rating (ZEAMX (Corn, Field); rate 0.1250 kg/ha): 7.6
- ABUTH preemergence herbicidal rating (ABUTH (Velvetleaf) [4]; rate 0.0156 kg/ha): 7.3
- ABUTH preemergence herbicidal rating (ABUTH (Velvetleaf) [4]; rate 0.0313 kg/ha): 8.4
- ABUTH preemergence herbicidal rating (ABUTH (Velvetleaf) [4]; rate 0.0625 kg/ha): 8.7
- ABUTH preemergence herbicidal rating (ABUTH (Velvetleaf) [4]; rate 0.1250 kg/ha): 9.0
- ABUTH preemergence herbicidal rating (ABUTH (Velvetleaf) [4]; rate 0.2500 kg/ha): 9.0
- ABUTH preemergence herbicidal rating (ABUTH (Velvetleaf) [4]; rate 0.5000 kg/ha): 9.0
- AMBEL preemergence herbicidal rating (AMBEL (Ragweed, Common); rate 0.0156 kg/ha): 1.6
- AMBEL preemergence herbicidal rating (AMBEL (Ragweed, Common); rate 0.0313 kg/ha): 4.5
- AMBEL preemergence herbicidal rating (AMBEL (Ragweed, Common); rate 0.0625 kg/ha): 5.7
- AMBEL preemergence herbicidal rating (AMBEL (Ragweed, Common); rate 0.1250 kg/ha): 8.5
- AMBEL preemergence herbicidal rating (AMBEL (Ragweed, Common); rate 0.2500 kg/ha): 8.9
- AMBEL preemergence herbicidal rating (AMBEL (Ragweed, Common); rate 0.5000 kg/ha): 9.0
- CASOB preemergence herbicidal rating (CASOB (Sicklepod); rate 0.0156 kg/ha): 0.0
- CASOB preemergence herbicidal rating (CASOB (Sicklepod); rate 0.0313 kg/ha): 0.1
- CASOB preemergence herbicidal rating (CASOB (Sicklepod); rate 0.0625 kg/ha): 1.2
- CASOB preemergence herbicidal rating (CASOB (Sicklepod); rate 0.1250 kg/ha): 1.7
- CASOB preemergence herbicidal rating (CASOB (Sicklepod); rate 0.2500 kg/ha): 3.3
- CASOB preemergence herbicidal rating (CASOB (Sicklepod); rate 0.5000 kg/ha): 3.8
- IPOHE preemergence herbicidal rating ([5]; rate 0.0156 kg/ha): 1.1
- IPOHE preemergence herbicidal rating ([5]; rate 0.0313 kg/ha): 4.4
- IPOHE preemergence herbicidal rating ([5]; rate 0.0625 kg/ha): 6.4
- IPOHE preemergence herbicidal rating ([5]; rate 0.1250 kg/ha): 8.6
- IPOHE preemergence herbicidal rating ([5]; rate 0.2500 kg/ha): 8.6
- IPOHE preemergence herbicidal rating ([5]; rate 0.5000 kg/ha): 9.0
- ECHCG preemergence herbicidal rating (ECHCG (Barnyardgrass); rate 0.0156 kg/ha): 0.4
- ECHCG preemergence herbicidal rating (ECHCG (Barnyardgrass); rate 0.0313 kg/ha): 2.2
- ECHCG preemergence herbicidal rating (ECHCG (Barnyardgrass); rate 0.0625 kg/ha): 4.4
- ECHCG preemergence herbicidal rating (ECHCG (Barnyardgrass); rate 0.1250 kg/ha): 7.4
- ECHCG preemergence herbicidal rating (ECHCG (Barnyardgrass); rate 0.2500 kg/ha): 8.9
- ECHCG preemergence herbicidal rating (ECHCG (Barnyardgrass); rate 0.5000 kg/ha): 9.0
- Herbicidal rating ECHORC ([6]; 0.0313 kg/ha): 6.5
- Herbicidal rating ECHORC ([6]; 0.0625 kg/ha): 6.5
- Herbicidal rating ECHORC ([6]; 0.1250 kg/ha): 7.5
- Herbicidal rating ECHORC ([6]; 0.2500 kg/ha): 8.5
- Herbicidal rating CYPSE (CYPSE (Flatsedge); 0.0313 kg/ha): 0.0
- Herbicidal rating CYPSE (CYPSE (Flatsedge); 0.0625 kg/ha): 0.0
- Herbicidal rating CYPSE (CYPSE (Flatsedge); 0.1250 kg/ha): 0.0
- Herbicidal rating CYPSE (CYPSE (Flatsedge); 0.2500 kg/ha): 0.0
- Herbicidal rating ECHORC ([7]; rate 0.0313 kg/ha): 6.5
- Herbicidal rating ECHORC ([7]; rate 0.0625 kg/ha): 6.5
- Herbicidal rating ECHORC ([7]; rate 0.1250 kg/ha): 7.5
- Herbicidal rating ECHORC ([7]; rate 0.2500 kg/ha): 8.5
- Herbicidal rating CYPIR (CYPIR (Rice Flatsedge); rate 0.0313 kg/ha): 0.0
- Herbicidal rating CYPIR (CYPIR (Rice Flatsedge); rate 0.0625 kg/ha): 0.0
- Herbicidal rating CYPIR (CYPIR (Rice Flatsedge); rate 0.1250 kg/ha): 0.0
- Herbicidal rating CYPIR (CYPIR (Rice Flatsedge); rate 0.2500 kg/ha): 4.0
